Holding throughout (format): cell-based
For assay [1], the target named is T1, Protein-cysteine N-palmitoyltransferase HHAT (Homo sapiens, UniProt Q5VTY9). The assay can be described thus: Inhibition of HA/FLAG/His-tagged HHAT (unknown origin) expressed in 293FT cells assessed as enzyme-mediated sonic hedgehog palmitoylation incubated for 20 mins followed by [125I]iodo-palmitoyl CoA and Shh biotinylated peptide and measured after 1 hr by Scintillation proximity assay. (In a scintillation proximity assay essentially only radioactivity close to the scintillant gives light.)
T1 sequence (Q5VTY9 whole entry): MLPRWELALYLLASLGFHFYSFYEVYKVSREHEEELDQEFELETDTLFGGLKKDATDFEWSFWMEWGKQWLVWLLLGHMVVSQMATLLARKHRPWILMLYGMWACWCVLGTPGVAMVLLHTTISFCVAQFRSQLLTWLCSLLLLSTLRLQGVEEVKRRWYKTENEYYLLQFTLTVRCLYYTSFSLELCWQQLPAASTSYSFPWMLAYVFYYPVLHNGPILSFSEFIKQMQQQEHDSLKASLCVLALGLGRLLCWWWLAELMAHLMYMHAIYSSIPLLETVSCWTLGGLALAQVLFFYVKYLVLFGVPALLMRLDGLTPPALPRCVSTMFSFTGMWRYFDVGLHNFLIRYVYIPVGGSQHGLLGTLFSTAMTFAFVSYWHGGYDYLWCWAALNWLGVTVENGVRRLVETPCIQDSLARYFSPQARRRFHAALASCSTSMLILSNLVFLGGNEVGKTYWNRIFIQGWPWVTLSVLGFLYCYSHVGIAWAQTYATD

Assay [2] deals with T1, Protein-cysteine N-palmitoyltransferase HHAT. The assay is described as follows: Inhibition of 3C-FLAG/His8-tagged human HHAT expressed in HEK293 cells assessed as reduction in enzyme-mediated sonic hedgehog (1 to 11 residues) palmitoylation by click-ELISA method.
For assay [3], the target named is Zinc finger protein GLI1/GLI2 (Mus musculus, UniProt P47806+Q0VGT2). The assay can be described thus: Inhibition of GLI1/GLI2 in mouse Shh Light2 cells assessed as reduction in endogenous hedgehog signalling in presence of Smo agonist SAG by luciferase reporter gene assay.
Assay [4] is described as follows: Inhibition of mouse Smo A1 mutant expressed in mouse Shh Light2 cells assessed as reduction in hedgehog pathway activation incubated for 30 hrs by luminescence assay.
For assay [5], the target named is Sonic hedgehog protein (Mus musculus, UniProt Q62226). The assay can be described thus: Inhibition of sonic hedgehog signaling in mouse Shh Light2 cells after […] by Bright-Glo luciferase assay.
Sonic hedgehog protein, sequence (Q62226 25-198 limits assumed): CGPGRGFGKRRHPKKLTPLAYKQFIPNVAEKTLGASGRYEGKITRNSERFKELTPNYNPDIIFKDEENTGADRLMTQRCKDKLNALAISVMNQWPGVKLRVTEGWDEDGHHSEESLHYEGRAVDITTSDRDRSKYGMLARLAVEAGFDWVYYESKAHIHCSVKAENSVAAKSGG

Structures are written as SMILES. pIC50: −log10 of the molar value.

A word on the pIC50: it is −log10 of the IC50, conventionally taken in molar units. In general, IC50 refers to the concentration needed to halve the response being measured.

On to `CCC(C)CNCC(=O)N1CCc2sccc2C1COc1cccc(C)c1` (stereo unspecified), for which the pIC50 in assay [1] was 6.07.

`CCC(C)CNCC(=O)N1CCc2sccc2C1c1cccc(C)n1` (stereo unspecified): in assay [2], the pIC50 was 6.70. For the compound `CN(C)c1ccccc1CN1CCCN(Cc2ccccc2N(C)C)C1c1ccncc1`, in assay [3], the IC50 came out at 5000 nM. Turning to `c1cc(-c2sc(-c3ccncc3)c(-c3ccncc3)c2-c2ccncc2)ccn1`, the IC50 in assay [3] turned out to be 5000 nM. Turning to `CCC(C)n1ncn(-c2ccc(N3CCN(c4ccc(OCC5COC(Cn6cncn6)(c6ccc(Cl)cc6Cl)O5)cc4)CC3)cc2)c1=O` (stereo unspecified) [ITRACONAZOLE], the pIC50 in assay [4] was 6.10. In assay [5], `O=C(C[C@@H]1C/C=C/CCC(=O)O[C@H](c2ccccc2)CNC1=O)NCc1ccc(Cl)cc1` [ROBOTNIKININ] had a pIC50 of 5.40.
